Results: patent US20220184172A1, “AMPK/CASPASE-6 AXIS CONTROLS LIVER DAMAGE IN NONALCOHOLIC STEATOHEPATITIS” (The Regents of the University of California, priority 2019, published 2022)

Legend:
[1] = system: procaspase-6 cleavage in HepG2 cells; assay: Procaspase-6 cleavage induced by TNFα and CHX in HepG2 cells (IB); assay type: cell-based; conditions: 40 μM pretreatment 1 hr, then 30 μg/ml CHX and 50 ng/ml TNFα 2 hrs
Description: FIGS. 15A-15F. AMPK phosphorylates caspase-6 and inhibits its cleavage. FIG. 15A. Caspase-6 activity was measure in the lysates from isolated primary hepatocytes treated with vehicle or 250 μM BSA-conjugated palmitic acid (PA) or 50 ng/ml TNFα for 2 hrs. Data are shown as mean±SD. *, P<0.05, Student's unpaired t test. FIG. 15B. HepG2 cells were pretreated with 40 μM A-769662 for 1 hr, and then treated with 30 μg/ml cycloheximide (CHX) and 50 ng/ml TNFα for 2 hrs. Cell lysates were subject to immunoblot (IB) analysis. FIG. 15C. In vitro kinase assay using purified caspase-6-mycexpressed in HEK293T cells, and recombinant AMPKα1β1γ1 active kinase. FIGS. 15D-15E. Flox and LAKO mice were fed with CD-HFD for 8 weeks. After 6 weeks of CD-HFD feeding, mice were intraperitoneally injected with 25 mg/kg A-769662 or vehicle daily for 2 weeks along with continuous CD-HFD feeding. FIG. 15D. […] Quantification of IB analysis in FIG. 15D. n=3. *, P<0.05, two-way ANOVA. […] Quantification of IB analysis in FIG. 5K. n=3. […]
Western blot was performed as previously described(11). […] Supernatants were collected and analyzed with BCA (Thermo Scientific) to quantify protein content. […] Individual proteins were detected with specific antibodies and visualized on film using horseradish peroxidase-conjugated secondary antibodies (Fisher Scientific) and SuperSignal West Pico PLUS Chemilunminescent Substrate (Thermo Scientific).

[2] = system: procaspase-6 cleavage in primary hepatocytes; assay: Procaspase-6 cleavage induced by TNFα and CHX in primary hepatocytes (IB); assay type: cell-based, mice; conditions: 40 μM pretreatment 1 hr, then 30 μg/ml CHX and 50 ng/ml TNFα 2 hrs
From the text: FIGS. 5A-5K. AMPK phosphorylates caspase-6 to inhibit its cleavage and activation. FIG. 5A. […] IB analysis of cell lysates. n=3. Mean±SD. *, P<0.05, two-way ANOVA. FIG. 5B. […] Cell lysates were subject to caspase-6 activity assay. Mean±SD. *, P<0.05. FIG. 5C. Caspase-6 Ser^257 locates within AMPK substrate motif. FIG. 5C. discloses SEQ ID NOS 57-63, respectively, in order of appearance. FIG. 5D. In vitro kinase assay using recombinant caspase-6, and recombinant AMPKα1β1γ1 or AMPKα2β1γ1 active kinase. FIG. 5E. Alignment of caspase-6 sequence. FIG. 5E. discloses SEQ ID NOS 64-67, respectively, in order of appearance. FIG. 5F. HEK293T cells overexpressing caspase-6-myc WT, S^257A, S^257D or S^257E mutant were treated with 10 μg/ml CHX and 25 ng/ml TNFα for 2 hrs. IB analysis of cell lysates. FIGS. 5G-5J. C57BL/6J mice were fed CD-HFD for 6 weeks, followed by intraperitoneally injection of 25 mg/kg A-769662 or vehicle daily for 2 weeks while continuous CD-HI-D. Mice were sacrificed 6 hrs after last injection. FIG. 5G. IB analysis of liver lysates. n=5. FIG. 5H. Liver lysates were subject to caspase-6 activity assay. n=7. FIG. 5I. Liver sections stained as indicated therein (aCasp6 and DAPI); in the merged image sections, the different stains correspond to the grayscale shades as indicated in the single stained images to the left. Scale bar=50 μm. […] Quantification of aCasp6 staining per field in FIG. 5I. n=7. […]

Structure (SMILES): N#Cc1c(O)c2c(-c3ccc(-c4ccccc4O)cc3)csc2[nH]c1=O [A-769662]
- procaspase-6 cleavage [1]: significantly inhibited
- procaspase-6 cleavage [2]: significantly inhibited
